Entries after “also recorded” stand apart in the source; their conditions may differ.

One experiment has as its system schizophrenia. Particulars: cited from earlier work; for Effect on symptoms of schizophrenia: add-on to antipsychotics (Citrome 2003, p. 86); for Effect on psychosis / symptoms of schizophrenia, other anticonvulsants: reports on use in schizophrenia (Citrome 2003, p. 85).
For experiment [1] the following is noted: range 60-400; cited from earlier work.
The subject of another experiment is C57BL/6J mice. The experiment can be described thus: Prepulse inhibition (PPI) of the acoustic startle reflex in mice. Particulars: for Mean PPI: 30 min prior to testing. Type of experiment: in vivo. The source says:
Chow and water were provided ad libitum for the duration of the study.
Responses were sampled every ms. The inter-trial interval was variable with an average of 15 s (range from 10 to 20 s).

For another experiment, the system named is GABA receptor subtypes. The note with it: cited from earlier work.
Experiment [2] relates to voltage-gated sodium channels. The note with it: cited from earlier work.
For experiment [3], the system named is voltage-gated calcium channels. The note with it: cited from earlier work.
Another experiment deals with potassium currents. The note with it: cited from earlier work.

For the compound `CCCC(CCC)C(=O)O` [Valproate], in the experiment on schizophrenia, the “Effect on symptoms of schizophrenia” value is “preferentially reduce the positive symptoms”. Moreover, in the experiment on schizophrenia (add-on to olanzapine or risperidone (Casey et al. 2003)), the “Effect on onset of action of the antipsychotic” value is recorded as “enhance the onset of action”.

Regarding `CCCCCCCCCC(=O)OCCN1CCN(CC/C=C2/c3ccccc3Sc3ccc(Cl)cc32)CC1` [Zuclopenthixol decanoate], the Minimum effective dose in experiment [1] is on record as 200 mg/2 weeks.

In the case of `NC(=O)N1c2ccccc2C=Cc2ccccc21` [carbamazepine], in the experiment on schizophrenia (add-on to haloperidol), the “Clinical outcome compared with antipsychotic monotherapy” value was “worse clinical outcome”. Besides, the “Improvement on the total BPRS (brief psychiatric rating scale)” value in the experiment with schizophrenia (another study on the use of carbamazepine) is reported as “failure to detect significant improvement”.

In the case of `CN1CCN(C2=Nc3cc(Cl)ccc3Nc3ccccc32)CC1` [clozapine], in the experiment with C57BL/6J mice (VEH 1/clozapine 3 mg/kg i.p., PPI expressed as a percentage of the basic startle response), the “Mean PPI” value is on record as 45 ± 2.

Regarding `NCC1(CC(=O)O)CCCCC1` [gabapentin], in the experiment on schizophrenia, the “Effect on psychosis / symptoms of schizophrenia, other anticonvulsants” value is recorded as “general worsening of psychosis”.

Turning to `COC[C@@H](NC(C)=O)C(=O)NCc1ccccc1` [lacosamide, (R)-2-acetamide-N-benzyl-3-methoxypropionamide], the “Mean PPI” value in the experiment on C57BL/6J mice (lacosamide 3 mg/kg/VEH 2 i.p.) is listed as 29 ± 3; in the experiment on C57BL/6J mice (lacosamide 10 mg/kg/VEH 2 i.p.), 34 ± 3; in the experiment with C57BL/6J mice (lacosamide 30 mg/kg/VEH 2 i.p.) it was 27 ± 2. Moreover, the “Effect on prepulse inhibition compared to vehicle” value with C57BL/6J mice (lacosamide administered alone, any dose tested) is “did not have any significant effect; also recorded: no significant effect”. The “Direct interaction with known GABA receptor subtypes” value in the experiment on GABA receptor subtypes was “does not directly interact”. Besides, the “Inhibition of voltage-gated sodium channels” value in experiment [2] is reported as “does not inhibit”. The “Inhibition of voltage-gated calcium channels” value in experiment [3] is “does not inhibit”. For the same compound, in the experiment on potassium currents, the “Potentiation of potassium currents” value was “does not potentiate”.

With `Nc1nnc(-c2cccc(Cl)c2Cl)c(N)n1` [lamotrigine], in the experiment on schizophrenia, the “Effect on symptoms of schizophrenia” value is reported as “preferentially reduce the positive symptoms”. For the same compound, the “Effect in schizophrenia when added to clozapine” value with schizophrenia (added to clozapine, double-blind placebo controlled clinical trial, treatment-resistant schizophrenia) is listed as “beneficial for the treatment of treatment-resistant schizophrenia; also recorded: improvement of positive, not negative symptoms”.

Consider `CC1(C)O[C@@H]2[C@@H](CO[C@@]3(COS(N)(=O)=O)OC(C)(C)O[C@@H]23)O1` [topiramate], for which the “Effect on psychosis / symptoms of schizophrenia, other anticonvulsants” value in the experiment on schizophrenia is “deterioration in both positive and negative symptoms”.

Values taken from patent US20060252749A1, “Lacosamide for add-on therapy of psychosis” (SRZ Properties, Inc., priority 2005, published 2006).
